Key:
Conditions in all cases: Compound concentration 1000.0 nM
[1] = biological target: T1, Homeodomain-interacting protein kinase 4 (Homo sapiens) (UniProt Q8NE63)
T1 sequence (whole entry): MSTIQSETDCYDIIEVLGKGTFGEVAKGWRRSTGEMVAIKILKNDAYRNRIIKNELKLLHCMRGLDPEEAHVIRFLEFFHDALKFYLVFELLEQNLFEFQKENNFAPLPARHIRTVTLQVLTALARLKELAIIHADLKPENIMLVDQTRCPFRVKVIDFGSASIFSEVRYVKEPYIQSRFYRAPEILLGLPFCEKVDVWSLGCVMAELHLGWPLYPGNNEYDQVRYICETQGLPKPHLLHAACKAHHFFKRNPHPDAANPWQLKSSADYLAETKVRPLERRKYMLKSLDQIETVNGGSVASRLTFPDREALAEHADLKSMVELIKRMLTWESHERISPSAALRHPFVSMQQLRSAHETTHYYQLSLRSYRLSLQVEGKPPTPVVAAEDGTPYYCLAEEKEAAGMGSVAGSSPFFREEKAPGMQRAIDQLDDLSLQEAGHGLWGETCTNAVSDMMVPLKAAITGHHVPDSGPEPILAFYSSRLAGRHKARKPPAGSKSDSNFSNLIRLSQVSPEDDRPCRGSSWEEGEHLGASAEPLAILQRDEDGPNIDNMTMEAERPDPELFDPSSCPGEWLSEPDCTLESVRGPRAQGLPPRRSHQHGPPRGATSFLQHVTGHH

[2] = biological target: T2, Tyrosine-protein kinase JAK3 (Homo sapiens) (UniProt P52333)
T2 sequence (whole entry): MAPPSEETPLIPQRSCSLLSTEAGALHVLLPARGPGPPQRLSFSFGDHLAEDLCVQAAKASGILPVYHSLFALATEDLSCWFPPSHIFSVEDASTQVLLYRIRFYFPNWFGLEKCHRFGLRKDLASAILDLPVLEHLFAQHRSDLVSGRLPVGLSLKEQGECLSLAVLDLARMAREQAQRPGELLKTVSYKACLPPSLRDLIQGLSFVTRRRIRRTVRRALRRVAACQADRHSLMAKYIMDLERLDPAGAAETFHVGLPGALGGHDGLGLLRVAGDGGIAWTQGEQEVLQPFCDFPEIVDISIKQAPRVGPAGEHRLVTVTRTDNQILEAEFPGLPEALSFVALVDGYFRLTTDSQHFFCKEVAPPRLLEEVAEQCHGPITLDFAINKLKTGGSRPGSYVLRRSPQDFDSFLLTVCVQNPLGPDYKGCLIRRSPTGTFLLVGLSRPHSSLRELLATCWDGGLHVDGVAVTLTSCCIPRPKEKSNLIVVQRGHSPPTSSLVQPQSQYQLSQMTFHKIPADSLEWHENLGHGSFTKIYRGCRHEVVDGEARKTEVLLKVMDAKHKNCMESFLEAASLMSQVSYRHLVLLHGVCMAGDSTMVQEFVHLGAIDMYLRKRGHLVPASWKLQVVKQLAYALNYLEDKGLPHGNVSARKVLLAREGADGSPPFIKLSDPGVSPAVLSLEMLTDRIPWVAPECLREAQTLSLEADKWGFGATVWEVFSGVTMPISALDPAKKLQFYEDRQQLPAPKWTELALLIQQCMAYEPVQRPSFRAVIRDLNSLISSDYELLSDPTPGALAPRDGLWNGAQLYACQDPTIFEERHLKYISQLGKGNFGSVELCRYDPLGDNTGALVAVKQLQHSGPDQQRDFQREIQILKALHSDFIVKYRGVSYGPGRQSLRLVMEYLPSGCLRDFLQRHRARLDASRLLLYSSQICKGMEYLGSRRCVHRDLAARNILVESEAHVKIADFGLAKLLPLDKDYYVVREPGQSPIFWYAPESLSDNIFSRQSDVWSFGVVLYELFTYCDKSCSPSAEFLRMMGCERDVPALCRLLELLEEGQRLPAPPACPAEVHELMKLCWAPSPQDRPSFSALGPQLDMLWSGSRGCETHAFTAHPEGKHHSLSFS

[3] = biological target: Calcium/calmodulin-dependent protein kinase kinase 1 (Homo sapiens) (UniProt Q8N5S9)
Calcium/calmodulin-dependent protein kinase kinase 1 (Homo sapiens), sequence (Q8N5S9 whole entry, looked up): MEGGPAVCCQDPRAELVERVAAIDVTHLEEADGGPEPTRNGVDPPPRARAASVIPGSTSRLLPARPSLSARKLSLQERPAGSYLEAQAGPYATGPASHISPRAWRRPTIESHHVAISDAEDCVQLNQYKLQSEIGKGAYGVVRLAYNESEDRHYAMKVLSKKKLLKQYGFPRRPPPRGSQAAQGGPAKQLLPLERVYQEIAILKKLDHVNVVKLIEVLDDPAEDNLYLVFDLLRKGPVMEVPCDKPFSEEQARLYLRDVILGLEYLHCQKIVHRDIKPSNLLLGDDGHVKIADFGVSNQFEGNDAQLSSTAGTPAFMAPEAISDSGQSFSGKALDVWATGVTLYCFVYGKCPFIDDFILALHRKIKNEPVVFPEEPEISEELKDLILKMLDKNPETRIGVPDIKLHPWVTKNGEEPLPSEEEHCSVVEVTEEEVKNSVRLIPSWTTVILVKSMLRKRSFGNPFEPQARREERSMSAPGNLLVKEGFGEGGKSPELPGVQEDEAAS

[4] = biological target: Myosin-IIIa (Homo sapiens) (UniProt Q8NEV4)
Myosin-IIIa (Homo sapiens), sequence (Q8NEV4 whole entry): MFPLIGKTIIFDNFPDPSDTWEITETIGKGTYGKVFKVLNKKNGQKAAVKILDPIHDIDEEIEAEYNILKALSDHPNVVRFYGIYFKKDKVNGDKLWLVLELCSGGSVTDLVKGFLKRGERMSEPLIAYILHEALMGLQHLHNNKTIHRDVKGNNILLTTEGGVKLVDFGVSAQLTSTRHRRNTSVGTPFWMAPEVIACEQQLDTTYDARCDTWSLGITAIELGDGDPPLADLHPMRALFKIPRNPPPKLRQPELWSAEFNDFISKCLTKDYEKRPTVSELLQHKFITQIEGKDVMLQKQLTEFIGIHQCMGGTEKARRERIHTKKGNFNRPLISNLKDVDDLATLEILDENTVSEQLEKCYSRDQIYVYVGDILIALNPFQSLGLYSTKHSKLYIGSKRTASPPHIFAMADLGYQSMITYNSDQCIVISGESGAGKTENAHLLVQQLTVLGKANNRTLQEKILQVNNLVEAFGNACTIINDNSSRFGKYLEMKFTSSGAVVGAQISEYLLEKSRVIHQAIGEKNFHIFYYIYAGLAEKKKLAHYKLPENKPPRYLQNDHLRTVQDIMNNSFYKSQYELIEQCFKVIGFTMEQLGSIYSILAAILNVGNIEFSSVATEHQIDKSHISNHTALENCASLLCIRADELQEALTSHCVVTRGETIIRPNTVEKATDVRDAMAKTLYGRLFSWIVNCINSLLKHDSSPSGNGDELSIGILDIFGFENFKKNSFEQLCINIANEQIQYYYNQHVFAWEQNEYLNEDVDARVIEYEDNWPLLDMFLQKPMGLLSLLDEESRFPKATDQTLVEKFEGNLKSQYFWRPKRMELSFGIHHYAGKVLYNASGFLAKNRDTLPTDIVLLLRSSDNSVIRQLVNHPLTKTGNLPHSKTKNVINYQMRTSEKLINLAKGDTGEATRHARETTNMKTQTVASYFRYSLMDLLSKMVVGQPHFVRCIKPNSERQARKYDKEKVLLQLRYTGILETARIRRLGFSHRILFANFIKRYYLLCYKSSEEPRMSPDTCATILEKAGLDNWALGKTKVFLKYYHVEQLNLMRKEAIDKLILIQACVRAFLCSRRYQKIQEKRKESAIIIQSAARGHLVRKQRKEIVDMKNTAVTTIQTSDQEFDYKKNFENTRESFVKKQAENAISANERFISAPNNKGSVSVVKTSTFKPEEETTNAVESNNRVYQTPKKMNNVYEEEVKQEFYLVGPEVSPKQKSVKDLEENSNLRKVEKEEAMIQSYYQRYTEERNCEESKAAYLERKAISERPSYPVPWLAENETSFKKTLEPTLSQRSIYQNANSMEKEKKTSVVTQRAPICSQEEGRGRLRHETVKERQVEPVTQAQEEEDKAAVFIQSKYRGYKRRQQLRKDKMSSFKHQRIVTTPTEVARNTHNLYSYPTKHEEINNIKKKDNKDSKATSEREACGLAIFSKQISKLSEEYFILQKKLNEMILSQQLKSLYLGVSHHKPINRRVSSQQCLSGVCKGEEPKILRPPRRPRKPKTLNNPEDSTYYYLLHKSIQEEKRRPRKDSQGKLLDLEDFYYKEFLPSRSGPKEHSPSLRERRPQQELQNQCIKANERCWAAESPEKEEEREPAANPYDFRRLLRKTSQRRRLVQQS

[5] = biological target: Vascular endothelial growth factor receptor 2 (Homo sapiens) (UniProt P35968)
Vascular endothelial growth factor receptor 2 (Homo sapiens), sequence (P35968 whole entry): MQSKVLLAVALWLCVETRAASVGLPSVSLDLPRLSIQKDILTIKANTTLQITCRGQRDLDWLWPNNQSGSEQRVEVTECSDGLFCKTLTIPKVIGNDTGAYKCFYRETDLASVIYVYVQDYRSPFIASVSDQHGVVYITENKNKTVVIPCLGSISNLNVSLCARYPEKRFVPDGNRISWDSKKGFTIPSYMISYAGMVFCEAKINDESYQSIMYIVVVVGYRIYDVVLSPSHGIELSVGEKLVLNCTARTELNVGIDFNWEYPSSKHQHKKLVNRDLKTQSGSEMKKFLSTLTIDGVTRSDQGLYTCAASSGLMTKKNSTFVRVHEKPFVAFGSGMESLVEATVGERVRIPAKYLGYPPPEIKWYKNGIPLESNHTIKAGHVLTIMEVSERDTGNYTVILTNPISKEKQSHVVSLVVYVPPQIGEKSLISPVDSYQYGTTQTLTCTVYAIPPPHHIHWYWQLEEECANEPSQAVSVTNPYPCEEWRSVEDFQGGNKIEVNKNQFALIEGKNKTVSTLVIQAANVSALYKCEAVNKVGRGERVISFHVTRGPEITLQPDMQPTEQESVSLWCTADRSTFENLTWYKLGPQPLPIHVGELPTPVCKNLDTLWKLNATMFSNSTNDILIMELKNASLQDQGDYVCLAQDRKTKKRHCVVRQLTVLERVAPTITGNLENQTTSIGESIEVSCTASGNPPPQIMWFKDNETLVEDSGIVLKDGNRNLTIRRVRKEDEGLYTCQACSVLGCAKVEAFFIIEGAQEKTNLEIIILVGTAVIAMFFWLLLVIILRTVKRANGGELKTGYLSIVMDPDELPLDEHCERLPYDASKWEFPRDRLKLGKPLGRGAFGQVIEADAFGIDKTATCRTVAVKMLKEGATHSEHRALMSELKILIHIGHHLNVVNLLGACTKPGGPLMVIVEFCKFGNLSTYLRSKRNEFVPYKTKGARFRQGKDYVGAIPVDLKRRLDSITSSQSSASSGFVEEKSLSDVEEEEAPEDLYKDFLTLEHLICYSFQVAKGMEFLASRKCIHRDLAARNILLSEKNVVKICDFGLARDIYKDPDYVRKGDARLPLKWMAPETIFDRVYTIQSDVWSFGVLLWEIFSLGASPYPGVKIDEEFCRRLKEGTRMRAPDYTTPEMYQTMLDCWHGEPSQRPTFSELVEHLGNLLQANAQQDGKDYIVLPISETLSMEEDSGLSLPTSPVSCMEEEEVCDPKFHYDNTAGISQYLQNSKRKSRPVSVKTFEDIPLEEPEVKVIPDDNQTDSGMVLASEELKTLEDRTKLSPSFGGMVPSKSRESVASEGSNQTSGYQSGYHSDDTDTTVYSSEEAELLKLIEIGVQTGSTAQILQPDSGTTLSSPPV

[6] = system: Tyrosine-protein kinase ABL1 (Homo sapiens), P00519 [Q252H]
[7] = biological target: Phosphatidylinositol 4-phosphate 5-kinase type-1 gamma (Homo sapiens) (UniProt O60331)
Phosphatidylinositol 4-phosphate 5-kinase type-1 gamma (Homo sapiens), sequence (O60331 whole entry): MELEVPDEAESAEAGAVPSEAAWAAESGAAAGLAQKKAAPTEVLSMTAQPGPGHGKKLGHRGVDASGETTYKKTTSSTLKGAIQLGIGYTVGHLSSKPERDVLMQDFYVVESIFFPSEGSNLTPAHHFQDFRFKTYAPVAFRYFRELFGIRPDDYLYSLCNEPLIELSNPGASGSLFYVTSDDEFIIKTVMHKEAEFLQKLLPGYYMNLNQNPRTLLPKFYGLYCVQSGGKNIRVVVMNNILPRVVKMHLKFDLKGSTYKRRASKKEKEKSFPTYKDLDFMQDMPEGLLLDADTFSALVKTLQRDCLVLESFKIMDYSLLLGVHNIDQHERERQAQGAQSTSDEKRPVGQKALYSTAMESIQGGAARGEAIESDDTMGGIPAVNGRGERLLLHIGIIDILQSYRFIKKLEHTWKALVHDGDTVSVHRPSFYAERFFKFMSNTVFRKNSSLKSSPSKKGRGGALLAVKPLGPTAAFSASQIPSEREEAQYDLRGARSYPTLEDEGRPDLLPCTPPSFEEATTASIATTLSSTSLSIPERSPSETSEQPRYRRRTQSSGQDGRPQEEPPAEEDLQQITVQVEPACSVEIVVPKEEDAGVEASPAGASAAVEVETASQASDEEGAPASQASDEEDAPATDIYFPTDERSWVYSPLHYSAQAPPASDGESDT

[8] = biological target: Cyclin-dependent kinase 19 (Homo sapiens) (UniProt Q9BWU1)
Cyclin-dependent kinase 19 (Homo sapiens), sequence (Q9BWU1 whole entry): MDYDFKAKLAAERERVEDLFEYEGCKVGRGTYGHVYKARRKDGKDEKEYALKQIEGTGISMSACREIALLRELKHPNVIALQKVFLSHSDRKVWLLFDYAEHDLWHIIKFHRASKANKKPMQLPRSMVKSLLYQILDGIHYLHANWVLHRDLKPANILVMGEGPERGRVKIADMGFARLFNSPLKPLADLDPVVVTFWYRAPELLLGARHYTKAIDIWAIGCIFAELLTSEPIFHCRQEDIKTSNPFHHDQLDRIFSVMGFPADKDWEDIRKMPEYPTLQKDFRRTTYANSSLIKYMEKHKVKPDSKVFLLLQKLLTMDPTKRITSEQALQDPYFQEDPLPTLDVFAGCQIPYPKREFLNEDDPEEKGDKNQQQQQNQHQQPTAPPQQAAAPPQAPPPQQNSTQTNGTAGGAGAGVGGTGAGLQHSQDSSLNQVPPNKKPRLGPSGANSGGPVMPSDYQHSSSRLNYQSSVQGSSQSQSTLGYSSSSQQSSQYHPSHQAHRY

[9] = biological target: T3, Serine/threonine-protein kinase DCLK3 (Homo sapiens) (UniProt Q9C098)
T3 sequence (whole entry): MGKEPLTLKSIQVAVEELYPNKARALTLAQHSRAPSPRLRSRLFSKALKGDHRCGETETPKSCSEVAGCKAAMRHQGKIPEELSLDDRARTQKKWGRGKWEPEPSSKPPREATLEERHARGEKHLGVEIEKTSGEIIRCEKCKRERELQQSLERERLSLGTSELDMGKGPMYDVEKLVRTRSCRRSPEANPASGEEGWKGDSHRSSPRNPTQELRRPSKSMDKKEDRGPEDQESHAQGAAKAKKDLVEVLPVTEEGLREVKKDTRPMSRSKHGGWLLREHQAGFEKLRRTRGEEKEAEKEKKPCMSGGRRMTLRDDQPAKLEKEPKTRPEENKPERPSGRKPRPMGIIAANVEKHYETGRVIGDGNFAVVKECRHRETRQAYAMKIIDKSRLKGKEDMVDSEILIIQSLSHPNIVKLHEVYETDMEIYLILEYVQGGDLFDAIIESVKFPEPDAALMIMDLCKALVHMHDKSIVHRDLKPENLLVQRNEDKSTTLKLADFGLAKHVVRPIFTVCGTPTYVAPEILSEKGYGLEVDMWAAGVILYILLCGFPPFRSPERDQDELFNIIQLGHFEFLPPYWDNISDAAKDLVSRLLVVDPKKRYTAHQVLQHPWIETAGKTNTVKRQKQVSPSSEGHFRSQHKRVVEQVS

Measured: residual activity

CCc1ccccc1C(=O)Nc1n[nH]c2c(C)c(F)c(C3C(C#N)=C(C)N(C)C(C)=C3C#N)cc12 [BAY-3827]
inactive: [1] 100% | [2] 79% | [3] 100% | [4] 68% | [5] 88% | [6] 99% | [7] 56% | [8] 100% | [9] 82%

CC1=C(C#N)C(c2ccc3c(c2)c(NC(=O)c2ccccc2C)nn3C)C(C#N)=C(C)N1 [BAY-974]
inactive: [1] 80% | [2] 83% | [3] 100% | [4] 86% | [5] 80% | [6] 73% | [7] 91% | [8] 74% | [9] 89%

— ChEMBL document CHEMBL4507319 (2021)
